Experiment [1] deals with 5'-AMP-activated protein kinase catalytic subunit alpha-2 (Homo sapiens) (UniProt P54646).
For experiment [2], the target named is Calcium/calmodulin-dependent protein kinase type 1D (Homo sapiens) (UniProt Q8IU85).
In experiment [3] the target is Calcium/calmodulin-dependent protein kinase type 1G (Homo sapiens) (UniProt Q96NX5).
Experiment [4] addresses Calcium/calmodulin-dependent protein kinase type II subunit delta (Homo sapiens) (UniProt Q13557).
Experiment [5] addresses T1, Calcium/calmodulin-dependent protein kinase type IV (Homo sapiens) (UniProt Q16566).
T1 sequence (whole entry): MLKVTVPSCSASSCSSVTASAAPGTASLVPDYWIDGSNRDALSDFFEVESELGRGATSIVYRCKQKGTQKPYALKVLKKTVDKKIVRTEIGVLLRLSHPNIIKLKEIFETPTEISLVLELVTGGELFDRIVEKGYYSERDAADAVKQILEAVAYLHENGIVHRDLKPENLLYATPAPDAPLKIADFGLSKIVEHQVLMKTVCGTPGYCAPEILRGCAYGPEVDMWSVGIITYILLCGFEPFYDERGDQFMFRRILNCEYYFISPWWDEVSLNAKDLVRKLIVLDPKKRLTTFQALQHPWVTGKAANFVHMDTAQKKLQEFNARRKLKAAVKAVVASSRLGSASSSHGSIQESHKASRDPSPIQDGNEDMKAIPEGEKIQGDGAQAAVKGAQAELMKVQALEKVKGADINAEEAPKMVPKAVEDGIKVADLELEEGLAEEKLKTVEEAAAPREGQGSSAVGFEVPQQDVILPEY

The target in experiment [6] is Calcium/calmodulin-dependent protein kinase kinase 2 (Homo sapiens, UniProt Q96RR4).
Experiment [7] addresses Casein kinase I isoform gamma-3 (Homo sapiens) (UniProt Q9Y6M4).
Experiment [8] deals with Death-associated protein kinase 3 (Homo sapiens) (UniProt O43293).
Chain of Death-associated protein kinase 3 (Homo sapiens) (O43293 whole entry, looked up): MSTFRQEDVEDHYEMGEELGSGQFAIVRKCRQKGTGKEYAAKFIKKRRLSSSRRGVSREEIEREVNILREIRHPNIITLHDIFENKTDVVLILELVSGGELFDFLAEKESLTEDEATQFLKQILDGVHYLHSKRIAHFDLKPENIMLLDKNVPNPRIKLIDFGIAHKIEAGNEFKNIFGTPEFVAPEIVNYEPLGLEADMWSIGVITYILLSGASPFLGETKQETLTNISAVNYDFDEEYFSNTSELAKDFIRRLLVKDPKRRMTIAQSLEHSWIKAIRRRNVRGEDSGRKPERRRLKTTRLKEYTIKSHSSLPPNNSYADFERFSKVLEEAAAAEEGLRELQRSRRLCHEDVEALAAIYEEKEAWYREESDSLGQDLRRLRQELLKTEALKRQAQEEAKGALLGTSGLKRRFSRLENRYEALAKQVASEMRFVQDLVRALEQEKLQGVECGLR
For experiment [9], the target named is Dual specificity mitogen-activated protein kinase kinase 2 (Homo sapiens, UniProt P36507).
Chain of Dual specificity mitogen-activated protein kinase kinase 2 (P36507 whole entry): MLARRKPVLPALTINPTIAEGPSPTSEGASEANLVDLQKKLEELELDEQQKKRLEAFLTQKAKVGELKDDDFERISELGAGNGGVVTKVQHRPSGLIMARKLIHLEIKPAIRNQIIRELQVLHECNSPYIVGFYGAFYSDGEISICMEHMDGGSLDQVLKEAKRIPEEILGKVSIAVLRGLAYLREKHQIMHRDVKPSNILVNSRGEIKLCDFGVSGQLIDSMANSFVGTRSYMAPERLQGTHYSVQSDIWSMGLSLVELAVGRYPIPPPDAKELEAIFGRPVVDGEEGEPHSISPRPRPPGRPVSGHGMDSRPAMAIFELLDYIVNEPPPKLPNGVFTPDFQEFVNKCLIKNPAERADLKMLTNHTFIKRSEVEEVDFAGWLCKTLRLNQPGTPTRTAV
Experiment [10] has as its target T2, Dual specificity mitogen-activated protein kinase kinase 6 (Homo sapiens) (UniProt P52564).
T2 sequence (whole entry): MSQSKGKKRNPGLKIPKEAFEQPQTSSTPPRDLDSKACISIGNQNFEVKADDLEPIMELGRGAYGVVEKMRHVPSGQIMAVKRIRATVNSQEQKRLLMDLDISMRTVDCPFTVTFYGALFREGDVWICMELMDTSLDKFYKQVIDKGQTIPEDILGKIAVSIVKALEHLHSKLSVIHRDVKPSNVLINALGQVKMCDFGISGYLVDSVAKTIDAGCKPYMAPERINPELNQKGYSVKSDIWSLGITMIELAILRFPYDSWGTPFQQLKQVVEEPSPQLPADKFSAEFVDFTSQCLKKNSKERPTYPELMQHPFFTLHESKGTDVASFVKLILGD

Experiment [11] has as its target Mitogen-activated protein kinase 3 (Homo sapiens, UniProt P27361).
Experiment [12] deals with Serine/threonine-protein kinase Nek6 (Homo sapiens) (UniProt Q9HC98).
Chain of Serine/threonine-protein kinase Nek6 (Homo sapiens) (Q9HC98 whole entry): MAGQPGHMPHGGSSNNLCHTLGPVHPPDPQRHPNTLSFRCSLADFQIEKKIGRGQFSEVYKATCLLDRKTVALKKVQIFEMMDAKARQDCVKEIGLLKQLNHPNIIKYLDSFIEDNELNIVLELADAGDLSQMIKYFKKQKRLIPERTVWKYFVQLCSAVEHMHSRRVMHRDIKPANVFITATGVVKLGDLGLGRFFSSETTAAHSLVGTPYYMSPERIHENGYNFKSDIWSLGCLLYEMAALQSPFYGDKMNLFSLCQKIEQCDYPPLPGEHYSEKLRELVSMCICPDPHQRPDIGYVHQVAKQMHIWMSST
Experiment [13] addresses Cyclin-dependent kinase 16 (Homo sapiens) (UniProt Q00536).
The target of experiment [14] is Serine/threonine-protein kinase PLK1 (Homo sapiens) (UniProt P53350).
Chain of Serine/threonine-protein kinase PLK1 (Homo sapiens) (P53350 whole entry): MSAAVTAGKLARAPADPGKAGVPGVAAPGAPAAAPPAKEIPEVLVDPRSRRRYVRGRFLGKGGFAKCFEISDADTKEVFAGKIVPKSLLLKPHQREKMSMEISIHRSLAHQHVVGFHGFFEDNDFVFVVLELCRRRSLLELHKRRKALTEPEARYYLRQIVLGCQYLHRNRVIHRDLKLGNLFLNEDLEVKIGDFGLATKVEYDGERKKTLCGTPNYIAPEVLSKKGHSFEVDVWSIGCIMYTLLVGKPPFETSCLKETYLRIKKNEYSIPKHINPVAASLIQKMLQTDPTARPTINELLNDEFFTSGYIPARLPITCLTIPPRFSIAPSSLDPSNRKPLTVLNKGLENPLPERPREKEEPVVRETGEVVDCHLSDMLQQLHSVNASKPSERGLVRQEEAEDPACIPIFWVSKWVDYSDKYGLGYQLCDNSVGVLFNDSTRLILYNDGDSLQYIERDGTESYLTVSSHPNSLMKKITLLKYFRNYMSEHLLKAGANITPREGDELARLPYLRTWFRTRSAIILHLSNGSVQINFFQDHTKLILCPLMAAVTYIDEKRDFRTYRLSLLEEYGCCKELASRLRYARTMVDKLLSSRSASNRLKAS
Experiment [15] has as its target Serine/threonine-protein kinase RIO2 (Homo sapiens) (UniProt Q9BVS4).
Experiment [16] concerns the target Ribosomal protein S6 kinase alpha-3 (Homo sapiens) (UniProt P51812).
In experiment [17] the target is Serine/threonine-protein kinase 38 (Homo sapiens) (UniProt Q15208).
For experiment [18], the target named is Serine/threonine-protein kinase 26 (Homo sapiens) (UniProt Q9P289).
Chain of Serine/threonine-protein kinase 26 (Homo sapiens) (Q9P289 2-416 limits assumed): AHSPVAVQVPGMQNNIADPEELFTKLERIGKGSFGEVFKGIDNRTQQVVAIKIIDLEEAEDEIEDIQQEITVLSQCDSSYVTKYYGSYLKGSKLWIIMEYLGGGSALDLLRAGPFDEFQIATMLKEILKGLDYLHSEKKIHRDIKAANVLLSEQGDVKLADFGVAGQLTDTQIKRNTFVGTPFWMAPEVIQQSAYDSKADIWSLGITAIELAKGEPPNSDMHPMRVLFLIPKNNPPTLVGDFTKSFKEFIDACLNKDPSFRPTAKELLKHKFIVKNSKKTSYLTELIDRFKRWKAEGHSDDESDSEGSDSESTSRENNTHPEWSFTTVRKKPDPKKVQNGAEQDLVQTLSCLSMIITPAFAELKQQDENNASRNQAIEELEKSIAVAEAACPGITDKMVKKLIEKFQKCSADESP
In experiment [19] the target is T3, Lymphokine-activated killer T-cell-originated protein kinase (Homo sapiens) (UniProt Q96KB5).
T3 sequence (whole entry): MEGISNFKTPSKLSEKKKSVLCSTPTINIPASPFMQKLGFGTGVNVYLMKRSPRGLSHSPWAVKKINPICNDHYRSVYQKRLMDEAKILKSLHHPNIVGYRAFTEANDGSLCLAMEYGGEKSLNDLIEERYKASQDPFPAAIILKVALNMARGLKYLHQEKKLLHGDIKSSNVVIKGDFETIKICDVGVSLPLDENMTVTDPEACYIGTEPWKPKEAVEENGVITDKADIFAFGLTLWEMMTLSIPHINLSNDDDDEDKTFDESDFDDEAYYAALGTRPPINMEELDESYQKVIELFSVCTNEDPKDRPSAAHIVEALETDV

For experiment [20], the target named is T4, Serine/threonine-protein kinase VRK3 (Homo sapiens) (UniProt Q8IV63).
T4 sequence (whole entry): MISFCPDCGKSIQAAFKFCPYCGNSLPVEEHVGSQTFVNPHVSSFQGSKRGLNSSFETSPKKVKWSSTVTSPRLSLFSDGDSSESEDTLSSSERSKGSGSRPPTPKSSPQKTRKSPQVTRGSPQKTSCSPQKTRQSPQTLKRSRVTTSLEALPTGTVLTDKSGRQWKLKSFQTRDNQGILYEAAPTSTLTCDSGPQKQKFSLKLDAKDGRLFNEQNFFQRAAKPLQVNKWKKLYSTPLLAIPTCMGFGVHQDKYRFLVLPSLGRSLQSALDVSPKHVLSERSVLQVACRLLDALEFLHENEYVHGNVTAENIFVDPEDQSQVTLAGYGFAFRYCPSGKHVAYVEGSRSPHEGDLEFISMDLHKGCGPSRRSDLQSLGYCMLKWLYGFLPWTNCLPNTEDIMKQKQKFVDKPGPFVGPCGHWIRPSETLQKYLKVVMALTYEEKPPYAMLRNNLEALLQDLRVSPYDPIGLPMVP

Chain of Casein kinase I isoform gamma-3 (Homo sapiens) (Q9Y6M4 whole entry, looked up, canonical isoform): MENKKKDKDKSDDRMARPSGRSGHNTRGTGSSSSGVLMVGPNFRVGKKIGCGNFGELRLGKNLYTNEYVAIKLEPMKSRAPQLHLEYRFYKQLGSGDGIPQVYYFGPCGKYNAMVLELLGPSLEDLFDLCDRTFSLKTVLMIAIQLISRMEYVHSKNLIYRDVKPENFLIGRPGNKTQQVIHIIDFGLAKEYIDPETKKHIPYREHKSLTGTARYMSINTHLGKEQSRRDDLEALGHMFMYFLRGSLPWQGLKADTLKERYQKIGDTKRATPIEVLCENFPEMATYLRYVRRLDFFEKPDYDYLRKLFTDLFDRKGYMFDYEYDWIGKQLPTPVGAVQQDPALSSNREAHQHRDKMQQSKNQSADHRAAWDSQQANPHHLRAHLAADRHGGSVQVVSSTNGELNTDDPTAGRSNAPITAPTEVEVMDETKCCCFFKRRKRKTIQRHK
Chain of Calcium/calmodulin-dependent protein kinase type 1G (Homo sapiens) (Q96NX5 whole entry): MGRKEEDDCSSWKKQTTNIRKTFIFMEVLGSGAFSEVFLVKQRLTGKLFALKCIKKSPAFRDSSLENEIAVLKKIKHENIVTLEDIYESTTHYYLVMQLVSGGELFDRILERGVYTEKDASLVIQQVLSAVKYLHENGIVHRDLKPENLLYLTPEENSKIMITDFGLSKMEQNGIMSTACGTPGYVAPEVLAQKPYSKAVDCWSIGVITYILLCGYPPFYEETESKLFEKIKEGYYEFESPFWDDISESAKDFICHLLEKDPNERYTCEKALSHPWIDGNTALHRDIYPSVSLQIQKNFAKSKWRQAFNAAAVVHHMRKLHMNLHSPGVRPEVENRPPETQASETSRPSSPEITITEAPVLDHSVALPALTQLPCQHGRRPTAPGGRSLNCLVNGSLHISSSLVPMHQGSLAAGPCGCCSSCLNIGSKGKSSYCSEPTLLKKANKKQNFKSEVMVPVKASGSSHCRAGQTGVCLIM
Chain of Serine/threonine-protein kinase RIO2 (Homo sapiens) (Q9BVS4 whole entry, looked up): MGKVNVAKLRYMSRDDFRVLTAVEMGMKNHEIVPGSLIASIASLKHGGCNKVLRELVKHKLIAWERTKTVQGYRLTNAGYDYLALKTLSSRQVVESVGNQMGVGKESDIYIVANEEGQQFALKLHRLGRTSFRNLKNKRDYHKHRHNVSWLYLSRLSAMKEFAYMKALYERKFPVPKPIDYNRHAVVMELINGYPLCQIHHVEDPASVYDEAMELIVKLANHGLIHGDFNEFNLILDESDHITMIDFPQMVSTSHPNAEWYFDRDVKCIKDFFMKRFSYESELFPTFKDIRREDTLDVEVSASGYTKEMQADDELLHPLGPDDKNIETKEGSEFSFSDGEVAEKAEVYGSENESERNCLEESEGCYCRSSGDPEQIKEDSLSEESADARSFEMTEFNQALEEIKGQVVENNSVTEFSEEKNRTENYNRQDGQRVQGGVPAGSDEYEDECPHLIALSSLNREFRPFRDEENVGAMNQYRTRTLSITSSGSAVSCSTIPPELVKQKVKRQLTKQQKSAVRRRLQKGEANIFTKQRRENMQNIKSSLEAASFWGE
Chain of Cyclin-dependent kinase 16 (Homo sapiens) (Q00536 whole entry): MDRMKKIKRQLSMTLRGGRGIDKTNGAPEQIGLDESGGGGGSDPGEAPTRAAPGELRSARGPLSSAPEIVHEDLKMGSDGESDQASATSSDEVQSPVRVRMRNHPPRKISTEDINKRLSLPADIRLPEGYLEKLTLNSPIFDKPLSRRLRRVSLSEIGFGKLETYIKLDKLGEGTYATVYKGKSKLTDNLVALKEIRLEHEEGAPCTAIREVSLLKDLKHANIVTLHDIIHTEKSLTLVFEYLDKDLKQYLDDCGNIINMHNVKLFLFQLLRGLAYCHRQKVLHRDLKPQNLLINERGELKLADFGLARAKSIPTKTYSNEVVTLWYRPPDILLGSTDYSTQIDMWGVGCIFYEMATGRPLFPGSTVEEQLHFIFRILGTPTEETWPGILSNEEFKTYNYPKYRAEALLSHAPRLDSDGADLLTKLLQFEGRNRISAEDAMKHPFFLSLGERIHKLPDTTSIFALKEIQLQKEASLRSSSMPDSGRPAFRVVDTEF
Chain of Mitogen-activated protein kinase 3 (P27361 whole entry): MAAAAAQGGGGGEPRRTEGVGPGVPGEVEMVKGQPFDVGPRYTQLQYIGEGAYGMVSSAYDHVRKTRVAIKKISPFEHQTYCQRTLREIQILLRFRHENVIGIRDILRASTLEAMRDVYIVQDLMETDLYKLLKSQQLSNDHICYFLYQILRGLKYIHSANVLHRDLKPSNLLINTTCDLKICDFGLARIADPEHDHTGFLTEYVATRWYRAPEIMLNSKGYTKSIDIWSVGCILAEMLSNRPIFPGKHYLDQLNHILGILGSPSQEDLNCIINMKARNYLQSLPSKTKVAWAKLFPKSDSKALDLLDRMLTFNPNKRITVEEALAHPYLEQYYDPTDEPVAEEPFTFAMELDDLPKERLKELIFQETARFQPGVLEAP
Chain of Calcium/calmodulin-dependent protein kinase type 1D (Homo sapiens) (Q8IU85 whole entry, looked up): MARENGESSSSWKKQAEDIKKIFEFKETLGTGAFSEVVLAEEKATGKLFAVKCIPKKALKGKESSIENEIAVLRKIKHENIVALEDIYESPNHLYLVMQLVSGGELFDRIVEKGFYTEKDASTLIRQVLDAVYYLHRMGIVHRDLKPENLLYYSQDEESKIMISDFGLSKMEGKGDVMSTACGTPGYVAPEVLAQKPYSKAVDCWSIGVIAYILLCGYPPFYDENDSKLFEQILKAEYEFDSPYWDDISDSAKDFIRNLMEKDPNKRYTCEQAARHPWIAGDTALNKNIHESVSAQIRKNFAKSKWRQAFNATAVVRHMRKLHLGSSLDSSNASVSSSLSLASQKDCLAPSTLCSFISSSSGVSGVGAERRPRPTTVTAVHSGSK

The term ΔTm denotes the shift of the melting midpoint relative to a reference. Regarding `Cc1c2ccncc2c(C)c2c1[nH]c1ccccc12` [ELLIPTECINE], the ΔTm in experiment [1] was 1.8 °C; in [2], 1.2 °C; in experiment [3], 0.3 °C; in experiment [4] it was -0.3 °C; in [5], 0.4 °C; in experiment [6] it was 1.3 °C. Also, the ΔTm in experiment [7] was 0.7 °C; in experiment [8], 4.3 °C; in experiment [9], 1 °C; in experiment [10], 6.3 °C; in experiment [11] it was 0.3 °C; in experiment [12] it was 2.5 °C. Further, the ΔTm in [13] is -0.4 °C; in [14] it was 3.9 °C; in experiment [15] it was 3.8 °C; in [16] it was 3.7 °C; in experiment [17] it was 1.1 °C; in experiment [18], 4.6 °C. The ΔTm came out at 0.3 °C in [19] and 1.3 °C in experiment [20].
In the case of `COc1nccc(-c2c(-c3ccc(F)cc3)ncn2[C@H]2CC[C@H](O)CC2)n1`, the shift in melting temperature (ΔTm) is 0.7 °C in experiment [1]; -0.1 °C in experiment [2]; 0.2 °C in [3]; 0.4 °C in experiment [4]; 0.2 °C in experiment [5]; -0.6 °C in [6]. Further, the ΔTm was 1.2 °C in experiment [7]; 0.4 °C in experiment [8]; 0.2 °C in experiment [9]; 0 °C in [10]; 0 °C in experiment [11]; -0.3 °C in experiment [12]. In addition, the ΔTm is 0.6 °C in experiment [13]; -0.2 °C in experiment [14]; 0 °C in [15]; 0.6 °C in [16]; 0.4 °C in experiment [17]; 2.8 °C in experiment [18]. The ΔTm in experiment [19] was 0.7 °C; in experiment [20], -0.1 °C.
For the compound `O=C(O)c1cc(N(Cc2ccccc2O)Cc2cc(O)ccc2O)ccc1O` [LAVENDUSTIN A], the ΔTm in experiment [1] was -1.1 °C; in experiment [2], 0.1 °C; in experiment [3], 0.2 °C; in experiment [4] it was 0.3 °C; in [5] it was 0.5 °C; in experiment [6] it was 0.5 °C. Also, the thermal shift (ΔTm) is 0.8 °C in [7]; 0.8 °C in [8]; 0.5 °C in experiment [9]; -1.1 °C in [10]; 0.3 °C in [11]; 0.4 °C in experiment [12]. For the same compound, the ΔTm was 0 °C in [13]; 0.9 °C in [14]; 0 °C in experiment [15]; -0.2 °C in experiment [16]; 0.2 °C in experiment [17]; 0.4 °C in experiment [18]. Besides, the ΔTm in [19] amounted to 0 °C; in [20], 0.7 °C.
Regarding `CN(C)C[C@@H]1CCn2cc(c3ccccc32)C2=C(C(=O)NC2=O)c2cn(c3ccccc23)CCO1` [RUBOXISTAURIN], the ΔTm in experiment [1] is 1.3 °C; in experiment [3], 0.1 °C; in experiment [5], 2.9 °C; in experiment [6], 1.6 °C; in [7], 0.5 °C; in experiment [8], 1.1 °C. In addition, the ΔTm is 0.1 °C in experiment [9]; 0.5 °C in experiment [10]; 0.5 °C in experiment [11]; -0.6 °C in experiment [12]; -0.9 °C in [14]; 1.8 °C in experiment [15]. Moreover, the ΔTm in experiment [16] is 8.1 °C; in experiment [17] it was 0 °C; in experiment [18] it was 4.1 °C; in [19], 0.9 °C; in experiment [20], -0.3 °C.
Turning to `c1ccc(-c2n[nH]c3c2oc2ccccc23)cc1`, the ΔTm is 0.5 °C in experiment [1]; 0.6 °C in [2]; 0.3 °C in experiment [3]; -0.2 °C in [4]; -0.2 °C in experiment [5]; 2.5 °C in experiment [6]. In addition, the ΔTm was 0.5 °C in experiment [7]; -0.9 °C in experiment [8]; -0.4 °C in experiment [9]; 1 °C in experiment [10]; 0.3 °C in experiment [11]; 0 °C in experiment [12]. For the same compound, the ΔTm in [13] is -0.2 °C; in [14] it was 2.2 °C; in [15], 2.9 °C; in experiment [16], 0.8 °C; in experiment [17] it was 1.4 °C; in experiment [18] it was 3.4 °C. Also, the figures for the thermal shift (ΔTm) in [19] and in experiment [20] were -0.2 °C and 1.8 °C, respectively.
`CCN1/C(=C/C(C)=O)Sc2ccc(OC)cc21`: the ΔTm was -0.1 °C in experiment [1]; 0 °C in [2]; -0.5 °C in experiment [3]; -0.6 °C in [4]; 0.8 °C in experiment [5]; 0.4 °C in experiment [6]. For the same compound, the ΔTm is 0.9 °C in experiment [8]; 0.5 °C in experiment [9]; 0.3 °C in experiment [10]; -0.4 °C in experiment [11]; -1 °C in experiment [12]; -0.5 °C in experiment [13]. Besides, the ΔTm was 0.3 °C in experiment [14]; -0.2 °C in experiment [15]; 0.4 °C in experiment [16]; 0.5 °C in [17]; 0.7 °C in experiment [18]; 1.1 °C in [19]. Besides, the ΔTm in experiment [20] stood at 0.1 °C.
In the case of `Oc1cc(O)cc(/C=C/c2ccc(O)c(O)c2)c1` [PICEATANNOL], the ΔTm worked out at 0.2 °C in experiment [1]; 1.1 °C in experiment [2]; 0.5 °C in [3]; 0.1 °C in experiment [4]; 0.2 °C in experiment [5]; 0.5 °C in [6]. For the same compound, the ΔTm in experiment [7] is 0.5 °C; in experiment [8] it was 4.6 °C; in [9], 0.2 °C; in [10], 0.1 °C; in experiment [11] it was 0.2 °C; in experiment [12] it was 0.6 °C. Also, the ΔTm in experiment [13] is 0 °C; in experiment [14], 2.3 °C; in experiment [15] it was 0.6 °C; in experiment [17], 1.7 °C; in [18], 1 °C; in experiment [19], 0 °C. In experiment [20], the ΔTm is -0.2 °C.

For the origin of these results see ChEMBL document CHEMBL1145498, “A systematic interaction map of validated kinase inhibitors with Ser/Thr kinases” (Proc Natl Acad Sci U S A, 2007).
